Measurements taken from US9242984B2, “Pyrazolyl derivatives as Syk inhibitors” (Merck Sharp & Dohme Corp., priority 2012, dated 2016).
pIC50: −log10 of the molar value.

Molecular target: T1, recombinant human Syk (GST-hSyk fusion protein) (Homo sapiens, UniProt P43405)
T1 construct: purchased Carna Biosciences 08-176
Test: Homogeneous Time-Resolved Fluorescence (HTRF) assay for the recombinant human Syk enzyme
Type: biochemical
Details: 10-dose titration, 25 μM ATP; read-out: rhSYK IC50
Outline: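 GST-hSyk (5 pM) preincubated 10 min with compound (0.1% DMSO) in 15 mM Tris-HCl pH 7.5, 2 mM DTT; reaction started with 250 nM biotinylated peptide, 5 mM Mg, 25 μM ATP, 45 min, room temperature. EDTA quench, Eu-anti-phosphotyrosine/SA-APC HTRF read after 30 min; IC50 from 10-dose titration (10 μM–0.508 nM), four-parameter fit.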

| pIC50 | SMILES |
| --- | --- |
| 7.51 | Cc1cc(Nc2nccc(C(F)(F)F)n2)cc(-c2cnn(CC3CN(C)C(=O)O3)c2)c1 (single isomer, unassigned) [Example 3.1, 3-methyl-5-{[4-(3-methyl-5-{[4-(trifluoromethyl)pyrimidin-2-yl]amino}phenyl)-1H-pyrazol-1-yl]methyl}-1,3-oxazolidin-2-one] |
| 7.86 | Cc1cc(Nc2nccc(C(F)(F)F)n2)cc(-c2cnn(CC3(O)CCN(C(N)=O)CC3)c2)c1 [Example 17, 4-hydroxy-4-((4-(3-methyl-5-((4-(trifluoromethyl)pyrimidin-2-yl)amino)phenyl)-1H-pyrazol-1-yl)methyl)piperidine-1-carboxamide] |
| 8.48 | Cc1cc(Nc2nccc(C(F)F)n2)cc(-c2cnn(CC(O)(CO)C(F)(F)F)c2)c1 (single isomer, unassigned) [Example 32.2, (S or R)-2-((4-(3-((4-(difluoromethyl)pyrimidin-2-yl)amino)-5-methylphenyl)-1H-pyrazol-1-yl)methyl)-3,3,3-trifluoropropane-1,2-diol] |
| 8.57 | Cc1cc(Nc2nccc(C(F)F)n2)cc(-c2cnn(C[C@H](O)C(N)=O)c2)c1 [Example 16, (2S)-3-[4-(3-{[4-(difluoromethyl)pyrimidin-2-yl]amino}-5-methylphenyl)-1H-pyrazol-1-yl]-2-hydroxypropanamide] |

Same assay, conditions: IC50 class; 10-dose titration, 25 μM ATP; read-out: rhSYK Activity

| pIC50 | SMILES |
| --- | --- |
| ≥ 7.00 | Cc1cc(Nc2nccc(C(F)(F)F)n2)cc(-c2cnn(CC(C)(O)C(N)=O)c2)c1 (single isomer, unassigned) [Example 8.3, 2-hydroxy-2-methyl-3-[4-(3-methyl-5-{[4-(trifluorometh-yl)pyrimidin-2-yl]amino}phenyl)-1H-pyrazol-1-yl]propanamide] |
| ≥ 7.00 | Cc1cc(Nc2nccc(C(F)(F)F)n2)cc(-c2cnn(CC3(C)CNC(=O)O3)c2)c1 (stereo not shown) [Example 3.118, 5-methyl-5-{[4-(3-methyl-5-{[4-(trifluoromethyl)pyrimidin-2-yl]amino}phenyl)-1H-pyrazol-1-yl]methyl}-1,3-oxazolidin-2-one] |
| ≥ 7.00 | Cc1cc(Nc2nccc(C(F)(F)F)n2)cc(-c2cnn(CCC3CCCN3)c2)c1 (stereo not shown) [Example 13.2, N-{3-methyl-5-[1-(2-pyrrolidin-2-ylethyl)-1H-pyrazol-4-yl]phenyl}-4-(trifluoro-methyl)-pyrimidin-2-amine] |
| ≥ 7.00 | Cc1cc(Nc2nccc(C(F)(F)F)n2)cc(-c2cnn(C3CCCC(O)C3O)c2)c1 (stereo not shown) [Example 10.3] |
| ≥ 7.00 | Cc1cc(Nc2nccc(C(F)(F)F)n2)cc(-c2cnn(CC3(O)CCCOC3)c2)c1 (stereo not shown) [Example 12.11, 3-{[4-(3-methyl-5-{[4-(trifluoromethyl)pyrimidin-2-yl]amino}phenyl)-1H-pyrazol-1-yl]methyl}-tetrahydro-2H-pyran-3-ol] |
| ≥ 7.00 | Cc1cc(Nc2nccc(C(F)(F)F)n2)cc(-c2cnn(CC3(O)CCN(C(N)=O)CC3)c2)c1 [Example 17, 4-hydroxy-4-((4-(3-methyl-5-((4-(trifluoromethyl)pyrimidin-2-yl)amino)phenyl)-1H-pyrazol-1-yl)methyl)piperidine-1-carboxamide] |
| ≥ 7.00 | Cc1cc(Nc2nccc(C(F)F)n2)cc(-c2cnn(CC(O)(CO)C(F)(F)F)c2)c1 (single isomer, unassigned) [Example 32.2, (S or R)-2-((4-(3-((4-(difluoromethyl)pyrimidin-2-yl)amino)-5-methylphenyl)-1H-pyrazol-1-yl)methyl)-3,3,3-trifluoropropane-1,2-diol] |
| ≥ 7.00 | Cc1cc(Nc2nccc(C(F)F)n2)cc(-c2cnn(C[C@H](O)C(N)=O)c2)c1 [Example 16, (2S)-3-[4-(3-{[4-(difluoromethyl)pyrimidin-2-yl]amino}-5-methylphenyl)-1H-pyrazol-1-yl]-2-hydroxypropanamide] |
| ≥ 7.00 | Cc1cc(Nc2nccc(C(F)F)n2)cc(-c2cnn(CC(O)C(=O)O)c2)c1 (stereo not shown) [Example 5.36, 3-[4-(3-{[4-(difluoromethyl)pyrimidin-2-yl]amino}-5-methylphenyl)-1H-pyrazol-1-yl]-2-hydroxypropanoic acid] |
| ≥ 7.00 | Cc1cc(Nc2nccc(C(F)F)n2)cc(-c2cnn(CCNC(=O)CC#N)c2)c1 [Example 26.4, 2-cyano-N-{2-[4-(3-{[4-(difluoromethyl)pyrimidin-2-yl]amino}-5-methylphenyl)-1H-pyrazol-1-yl]ethyl}acetamide] |
| ≥ 7.00 | Cc1cc(Nc2nccc(C(F)F)n2)cc(-c2cnn(CC3OC(=O)NC3C3CC3)c2)c1 (single isomer, unassigned) [Example 23.18, 4-cyclopropyl-5-{[4-(3-{[4-(difluoromethyl)pyrimidin-2-yl]amino}-5-methylphenyl)-1H-pyrazol-1-yl]methyl}-1,3-oxazolidin-2-one] |
| ≥ 7.00 | Cc1cc(Nc2nccc(C(F)(F)F)n2)cc(-c2cnn(CCCC(N)=O)c2)c1 [Example 8.9, 4-[4-(3-methyl-5-{[4-(trifluoromethyl)-pyrimidin-2-yl]amino}phenyl)-1H-pyrazol-1-yl]butanamide] |
| ≥ 7.00 | Cc1cc(Nc2nccc(C(F)(F)F)n2)cc(-c2cnn(CC3OC(=O)NC3C(C)C)c2)c1 (single isomer, unassigned) [Example 23.5, 4-(1-methylethyl)-5-{[4-(3-methyl-5-{[4-(trifluoromethyl)pyrimidin-2-yl]amino}phenyl)-1H-pyrazol-1-yl]methyl}-1,3-oxazolidin-2-one] |
| ≥ 7.00 | Cc1cc(Nc2nccc(C(F)(F)F)n2)cc(-c2cnn(C[C@H](O)C(N)=O)c2)c1 [Example 8.16, (2s)-2-hydroxy-3-[4-(3-methyl-5-{[4-(trifluorometh-yl)pyrimidin-2-yl]amino}phenyl)-1H-pyrazol-1-yl]propanamide] |

The next lines start with the molecule.

| SMILES | pIC50 |
| --- | --- |
| Cc1cc(Nc2nccc(C(F)(F)F)n2)cc(-c2cnn(CC3CN(C)C(=O)O3)c2)c1 (single isomer, unassigned) [Example 3.1, 3-methyl-5-{[4-(3-methyl-5-{[4-(trifluoromethyl)pyrimidin-2-yl]amino}phenyl)-1H-pyrazol-1-yl]methyl}-1,3-oxazolidin-2-one] | ≥ 7.00 |
| NC(=O)CCn1cc(-c2cccc(Nc3nccc(C(F)(F)F)n3)c2)cn1 [Example 2.15, 3-[4-(3-{[4-(trifluoromethyl)pyrimidin-2-yl]amino}phenyl)-1H-pyrazol-1-yl]propanamide] | ≥ 7.00 |
| Cc1cc(Nc2nccc(C(F)(F)F)n2)cc(-c2cnn(CS(N)(=O)=O)c2)c1 [Example 3.39, 1-[4-(3-methyl-5-{[4-(trifluoromethyl)pyrimidin-2-yl]amino}-phenyl)-1H-pyrazol-1-yl]methane-sulfonamide] | ≥ 7.00 |
| Nc1cc(Nc2nccc(C(F)(F)F)n2)cc(-c2cnn(C3CCC(C(=O)O)CC3)c2)c1 (stereo not shown) [Example 1.50, 4-[4-(3-amino-5-{[4-(trifluoromethyl)pyrimidin-2-yl]amino}phenyl)-1H-pyrazol-1-yl]cyclohexanecarboxylic acid] | ≥ 7.00 |
| Cc1cc(Nc2cc(C(F)(F)F)ccn2)nc(-c2cnn(CC(=O)OC(C)(C)C)c2)c1 [Example 1.30, tert-butyl [4-(4-methyl-6-{[4-(trifluoromethyl)pyridin-2-yl]amino}pyridin-2-yl)-1H-pyrazol-1-yl]acetate] | ≥ 7.00 |
| Cc1cc(Nc2nccc(C(F)(F)F)n2)cc(-c2cnn(CC3CC3)c2)c1 [Example 3.21, N-{3-[1-(cyclopropylmethyl)-1H-pyrazol-4-yl]-5-methylphenyl}-4-(trifluoromethyl)pyrimidin-2-amine] | ≥ 7.00 |
| Cc1cc(Nc2nccc(C(F)F)n2)cc(-c2cnn(CC3CC(=O)NC34CC4)c2)c1 (stereo not shown) [Example 3.90, 7-{[4-(3-{[4-(difluoromethyl)pyrimidin-2-yl]amino}-5-methylphenyl)-1H-pyrazol-1-yl]methyl}-4-azaspiro[2.4]heptan-5-one] | ≥ 7.00 |
| Cc1cc(Nc2nccc(C(F)F)n2)cc(-c2cnn(C(C)C3CNC(=O)C3)c2)c1 (stereo not shown) [Example 2.70, 4-{1-[4-(3-{[4-(difluoromethyl)pyrimidin-2-yl]amino}-5-methylphenyl)-1H-pyrazol-1-yl]ethyl}pyrrolidin-2-one] | ≥ 7.00 |
| Cc1cc(Nc2ncc(F)c(C)n2)cc(-c2cnn(CC3CNC(=O)O3)c2)c1 (stereo not shown) [Example 2.22, 5-[(4-{3-[(5-fluoro-4-methylpyrimidin-2-yl)amino]-5-methylphenyl}-1H-pyrazol-1-yl)methyl]-1,3-oxazolidin-2-one] | ≥ 7.00 |
| Cc1cc(Nc2nccc(C(F)F)n2)cc(-c2cnn(Cc3ccc(=O)[nH]c3)c2)c1 [Example 3.95, 5-{[4-(3-{[4-(difluoromethyl)pyrimidin-2-yl]amino}-5-methylphenyl)-1H-pyrazol-1-yl]methyl}pyridin-2(1H)-one] | ≥ 7.00 |
